The values that follow come from publication PMC9570838, “JND4135, a New Type II TRK Inhibitor, Overcomes TRK xDFG and Other Mutation Resistance In Vitro and In Vivo” (Molecules, 2022).

For test [1], the system named is BaF3 ETV6-TRKC. Description: BaF3 cell proliferation, CCK-8 assay. The conditions noted are these: Mus musculus, BaF3, 72 h, read-out: IC50 (nM ± SD) WT ETV6-TRKC. On the technique in general: Tetrazolium assays rely on reduction of a dye to a coloured formazan, in cell work by metabolically active cells.
Experimental: (§1) Murine BaF3 cells were purchased from JRCB cell bank. The BaF3 cell lines, which stably express natively-fused TRKA/B/C or various point mutants, were self-established by following previously described procedures. Briefly, NTRK genes were totally synthesized and cloned into pCDNA3.1(+) vectors (Invitrogen, Carlsbad, CA, USA). […] Stable strains were established by selection of cells 2 weeks post-transfection with 800 μg/mL G418 (Merck, Whitehouse Station, NJ) and further selection after the withdrawal of interleukin-3 (IL-3, R&D) for 2 weeks. All of BaF3 stable cell lines were verified by DNA sequencing, protein expression and anti-proliferation activity against positive drugs. […] All cells were grown at 37 °C in a humidified 5% CO2 atmosphere.
(§2) Cells were placed in 96-well plates (5000~8000/well) in complete medium. […] IC50 values were calculated by concentration-response curve fitting using GraphPad Prism 5.0 software. Each IC50 value is expressed as mean ± SD.
For test [2], the system named is BaF3 QKI-TRKB. Description: BaF3 cell proliferation, CCK-8 assay. The conditions noted are these: Mus musculus, BaF3, 72 h, read-out: IC50 (nM ± SD) WT QKI-TRKB.
Experimental: as §1, §2
Test [3] deals with BaF3 CD74-TRKA-G667C. The experiment in a line: BaF3 cell proliferation, CCK-8 assay. The note with it: Mus musculus, BaF3, 72 h, read-out: IC50 (nM ± SD) xDFG CD74-TRKA-G667C.
Experimental: as §1, §2
Test [4] concerns BaF3 ETV6-TRKC-G696C. The experiment in a line: BaF3 cell proliferation, CCK-8 assay. The conditions noted are these: Mus musculus, BaF3, 72 h, read-out: IC50 (nM ± SD) xDFG ETV6-TRKC-G696C.
Experimental: as §1, §2
The test system of test [5] is BaF3 CD74-TRKA-F589L. The experiment in a line: BaF3 cell proliferation, CCK-8 assay. The note with it: Mus musculus, BaF3, 72 h, read-out: IC50 (nM ± SD) Gatekeeper CD74-TRKA-F589L.
Experimental: as §1, §2
Test [6] concerns BaF3 CD74-TRKA. The experiment in a line: BaF3 cell proliferation, CCK-8 assay. The conditions noted are these: Mus musculus, BaF3, 72 h, read-out: IC50 (nM ± SD) WT CD74-TRKA.
Experimental: as §1, §2
In test [7] the test system is BaF3 EML4-TRKC. The experiment in a line: BaF3 cell proliferation, CCK-8 assay. The note with it: Mus musculus, BaF3, 72 h, read-out: IC50 (nM ± SD) WT EML4-TRKC.
Experimental: as §1, §2
Test [8] concerns BaF3 MPRIP-TRKA. Description: BaF3 cell proliferation, CCK-8 assay. The note with it: read-out: IC50 (nM ± SD) WT MPRIP-TRKA.
Experimental: as §1, §2
Test [9] concerns Parental BaF3 (+IL3). Description: BaF3 cell proliferation, CCK-8 assay. The conditions noted are these: Mus musculus, BaF3, 72 h, read-out: IC50 (nM ± SD) Parental BaF3 (+IL3).
Experimental: as §1, §2
Test [10] concerns BaF3 ETV6-TRKB-G639R. Description: BaF3 cell proliferation, CCK-8 assay. The conditions noted are these: Mus musculus, BaF3, 72 h, read-out: IC50 (nM ± SD) Solvent Front ETV6-TRKB-G639R.
Experimental: as §1, §2
Test [11] deals with BaF3 ETV6-TRKC-F617L. The experiment in a line: BaF3 cell proliferation, CCK-8 assay. The note with it: Mus musculus, BaF3, 72 h, read-out: IC50 (nM ± SD) Gatekeeper ETV6-TRKC-F617L.
Experimental: as §1, §2
Test [12] relates to BaF3 ETV6-TRKC-G623R. The experiment in a line: BaF3 cell proliferation, CCK-8 assay. The note with it: Mus musculus, BaF3, 72 h, read-out: IC50 (nM ± SD) Solvent Front ETV6-TRKC-G623R.
Experimental: as §1, §2
The subject of test [13] is BaF3 ETV6-TRKB-G709C. Description: BaF3 cell proliferation, CCK-8 assay. The note with it: Mus musculus, BaF3, 72 h, read-out: IC50 (nM ± SD) xDFG ETV6-TRKB-G709C.
Experimental: as §1, §2
The test system of test [14] is BaF3 ETV6-TRKB. Description: BaF3 cell proliferation, CCK-8 assay. The conditions noted are these: Mus musculus, BaF3, 72 h, read-out: IC50 (nM ± SD) WT ETV6-TRKB.
Experimental: as §1, §2
Test [15] has as its system BaF3 ETV6-TRKB-F633L. Description: BaF3 cell proliferation, CCK-8 assay. The note with it: Mus musculus, BaF3, 72 h, read-out: IC50 (nM ± SD) Gatekeeper ETV6-TRKB-F633L.
Experimental: as §1, §2
For test [16], the system named is BaF3-CD74-TRKA-G667C cells. Description: Apoptosis by flow cytometry (Annexin V / 7-AAD). Type of test: cell-based, Murine. The conditions noted are these: even at a concentration of 50 nM. As to the method: For analysis of the cell cycle, cells were harvested and washed twice with PBS after treatment for 24 h with indicated drugs or DMSO. […] The cells were then analyzed on a Guava easyCyte flow cytometer (Merck, Whitehouse Station, NJ, USA). For analysis of cell apoptosis, cells were harvested and washed twice with ice-cold PBS after treatment for 48 h with indicated drugs or DMSO. […] Finally, 400 μL of a 1 × BD binding buffer solution was replenished. The cells were then analyzed on a Guava easyCyte flow cytometer (Merck, Whitehouse Station, NJ, USA).
A general note: In flow cytometry, cells or beads pass a laser one at a time.

Test [17] concerns BaF3 cells with gatekeeper mutations (TRKA^F589L, TRKB^F663L, TRKC^F617L). Description: BaF3 cell proliferation, summary over gatekeeper lines. The conditions noted are these: Mus musculus, BaF3, read-out: IC50 in cells with gatekeeper mutations.
Experimental: as §1, §2
The test system of test [18] is BaF3 CD74-TRKA-G595R. The experiment in a line: BaF3 cell proliferation, CCK-8 assay. The note with it: Mus musculus, BaF3, 72 h, read-out: IC50 (nM ± SD) Solvent Front CD74-TRKA-G595R.
Experimental: as §1, §2
Test [19] has as its system TRKs-xDGF mutants TRKA-G667C, TRKB-G709C and TRKC-G696C in stable BaF3 models. Description: Western blot of xDFG mutant TRK signal pathway (Figure S2). In kind it is cell-based, Murine. The note with it: even at 200 nM, 6 h. How it is done: Cells were treated with various concentrations of each tested compound for a designated time. Then cells were lysed using 1 × SDS sample lysis buffer (CST recommended) with protease and phosphatase inhibitors. […] The films were blocked with 5% fat-free milk in TBS solution containing 0.5% Tween-20 for 4 h at room temperature, then incubated with the corresponding primary antibody (1:1000–1:200) overnight at 4 °C. After washing with TBST, HRP-conjugated secondary antibody was incubated for 2 h. The protein signals were visualized by ECL Western Blotting Detection Kit (Thermo Scientific, Waltham, MA, USA), and detected with Amersham Imager 600 system (GE, Boston, MA, USA).
On the technique in general: Immunoblotting shows a protein as a band on a membrane.

The subject of test [20] is BaF3 cells with solvent front mutations (TRKA^G595R, TRKB^G639R, TRKC^G623R). The experiment in a line: BaF3 cell proliferation, summary over solvent front lines. The conditions noted are these: Mus musculus, BaF3, read-out: IC50 range in cells with solvent front mutations.
Experimental: as §1, §2
The subject of test [21] is wild-type TRKA/B/C or solvent-front mutations. The experiment in a line: Multi-target kinase inhibitors in BaF3 cell proliferation assays (Table S3). Type of test: cell-based, Murine.
The subject of test [22] is TRKA^G667C mutant. Described as above. In kind it is cell-based, Murine.

Molecules are shown by their SMILES. Where two headings read alike, the source gives them in different places.

Broadly, the IC50 is the concentration that inhibits the measured activity by half.

`CN1CCN(c2ccc(C(=O)Nc3n[nH]c4ccc(Cc5cc(F)cc(F)c5)cc34)c(NC3CCOCC3)c2)CC1` [Entrectinib]: the concentration for half-maximal inhibition (IC50) in test [1] was found to be 7.8 ± 4.2 nM; in test [2], 4.8 ± 1.6 nM; in test [3], 33.2 ± 3.2 nM; in test [4] it was 124 ± 60.4 nM; in [5] it was 2.1 ± 0.3 nM; in test [6], 4.4 ± 1 nM. The IC50 in test [7] was determined as 5.2 ± 1.6 nM; in [8] (Mus musculus, BaF3, 72 h), 1.6 ± 0.4 nM; in test [9], 2340 ± 202 nM; in test [10], 529 ± 130 nM; in test [11], 4.6 ± 2.8 nM; in test [12], 617 ± 69.8 nM. Besides, the IC50 in test [13] amounted to 285 ± 92.4 nM; in [14], 8 ± 3.1 nM; in test [15] it was 13 ± 3.6 nM.
Turning to `O=C(Nc1cnn2ccc(N3CCC[C@@H]3c3cc(F)ccc3F)nc12)N1CC[C@H](O)C1` [Larotrectinib], the concentration for half-maximal inhibition (IC50) in [1] came to 11.2 ± 2.8 nM; in test [2], 11.4 ± 4.2 nM; in [3] it was 313 ± 48.5 nM; in test [4], 769 ± 325 nM; in test [5] it was 423 ± 92.6 nM; in [6] it was 8 ± 0.8 nM. The concentration for half-maximal inhibition (IC50) in test [7] is 21.7 ± 6.9 nM; in [8] (Mus musculus, BaF3, 72 h) it was 4.8 ± 1.2 nM; in test [9] it was above 10000 nM; in test [10] it was 1900 ± 778 nM; in test [11] it was 513 ± 156 nM; in [12] it was 1270 ± 165 nM. The IC50 is 1630 ± 821 nM in [13]; 24 ± 4.2 nM in test [14]; above 423 nM in [17]; 1110 ± 251 nM in test [18]; 1400 ± 214 nM in test [15]. Further, in test [16], the “effect on cell cycle or apoptosis” value is reported as “little effect”. Also, the “inhibition of the activation of TRKs-xDGF mutants” value in test [19] was “limited inhibition”.
As for `C[C@H]1CNC(=O)c2cnn3ccc(nc23)N[C@H](C)c2cc(F)ccc2O1` [Repotrectinib], the IC50 in [1] was determined as 2.1 ± 0.9 nM; in test [2] it was 0.8 ± 0.7 nM; in test [4] it was 42.9 ± 33.6 nM; in test [7], 2.7 ± 1.6 nM; in test [8] (CCK-8, 72 h) it was 1.1 ± 0.2 nM; in [9] it was 906 ± 69 nM. The half-maximal inhibitory concentration (IC50) is 2.1 ± 1.1 nM in test [11]; 14.6 ± 4.7 nM in test [12]; 89.7 ± 38.8 nM in test [13]; 2.3 ± 0.5 nM in test [14]; 4.9 ± 2.2 nM in test [15].
For `C[C@@H]1CCc2ncc(F)cc2[C@H]2CCCN2c2ccn3ncc(c3n2)C(=O)N1` [Selitrectinib], the IC50 amounted to 1.7 ± 1.1 nM in test [1]; 1.5 ± 0.4 nM in test [2]; 66.3 ± 13 nM in test [3]; 98.4 ± 55 nM in [4]; 17.3 ± 2.2 nM in test [5]; 2.5 ± 0.2 nM in test [6]. Besides, the half-inhibitory concentration (IC50) in [7] was 2.1 ± 0.2 nM; in test [8] (Mus musculus, BaF3, 72 h), 1.1 ± 0.4 nM; in [9] it was above 10000 nM; in test [10] it was 11.4 ± 2.2 nM; in test [11] it was 20.8 ± 7.9 nM; in [12], 9.6 ± 1.2 nM. For the same compound, the IC50 was 9.4 to 33.7 nM in test [20]; 168 ± 73 nM in test [13]; 4.9 ± 1.4 nM in test [14]; 13.6 ± 3.3 nM in test [18]; 55.8 ± 10.8 nM in test [15]. Also, the “effect on cell cycle or apoptosis” value in test [16] was “little effect”. For the same compound, the “inhibition of the activation of TRKs-xDGF mutants” value in test [19] is listed as “limited inhibition”.
Consider `COc1cc2nccc(Oc3ccc(NC(=O)C4(C(=O)Nc5ccc(F)cc5)CC4)cc3)c2cc1OC` [cabozantinib], for which the “activity against wild-type TRKA/B/C or solvent-front mutations” value in test [21] was “weak activity”. The “activity against TRKA^G667C mutant” value in [22] is on record as “good activity”.
Take `Cc1ccc(C(=O)Nc2ccc(CN3CCN(C)CC3)c(C(F)(F)F)c2)cc1C#Cc1cnc2cccnn12` [ponatinib]: the “activity against wild-type TRKA/B/C or solvent-front mutations” value in test [21] was “weak activity”. Further, in [22], the “activity against TRKA^G667C mutant” value was “good activity”.
